# Tests used:
# Test in all cases: Preservative efficacy testing in cream, Example 2 (Study 1 and 2)
# Type in all cases: cell-based
# [1] = system: Aspergillus brasiliensis (ATCC #16404)
# Description: (§1) Oregano essential oil containing 67.8% carvacrol (lot number 628034, thymol was not detectable) was received from Kemin SCI. Caprylic acid was obtained from Fisher Scientific (catalog number AC12939). To make MicroCurb OC, a blend with 10% oregano essential oil and 90% caprylic acid (w/w) was prepared for initial testing. The solution was mixed thoroughly for 10 seconds by a vortex mixer until a clear, homogenous mixture was obtained, resulting in the product MicroCurb OC.
# (§2) Creams were prepared aseptically by spraying 70% isopropyl alcohol on all surfaces and glassware. Preservative studies were completed at different times for caprylic acid alone (Study 1) and MicroCurb OC (Study 2). Tables 5 and 6 list the various ingredients and their percentages used in Study 1 and 2, respectively.
# (§3) De-ionized water was added to a pre-weighed 250 mL beaker and mixed at 800 rpm using an overhead mixer (Eurostar power-b IKA-WERKE, Wilmington, N.C.) with a 3 blade impeller. Carbomer 940 was slowly added to the center of the mixing water. The mixture was hydrated for 30 minutes while covered with aluminum foil. Glycerin and Lysofix were slowly added to the solution. After solution appeared homogenous, safflower oil, olive oil, and coco caprylate were slowly added to the mixture at 1000 rpm. The solution was mixed for 30 minutes while covered with aluminum foil. Next the pH was measured (around 3.2) and adjusted to 5.5 with a 33.3% sodium hydroxide solution. The mixing speed was increased to 1400 rpm. From time to time, it was necessary to scrape the sides of the beaker with a spatula to ensure that the cream became homogenized. After 5 minutes, the cream was weighed and water was replenished for the mass lost during the processing.
# (§4) Microorganisms Escherichia coli (ATCC #8739), Staphylococcus aureus (ATCC #6538), Pseudomonas aeruginosa (ATCC #9027), and Candida albicans (ATCC #10231) were obtained from −80° C. internal stock cultures. Aspergillus brasiliensis (ATCC #16404) was obtained from an internal stock solution stored at 4° C. E. coli, S. aureus, and P. aeruginosa were grown in TSB and incubated at 37° C. for 24 h. A. brasiliensis was plated on SDA and incubated at 25° C. for 5-7 days. C. albicans was grown in SDB and incubated at 25° C. for 48 h.
# (§5) Pathogens in broth were harvested by centrifugation (2400 rpm, 20 minutes) and suspended in sterile phosphate buffer. A. brasiliensis was harvested by adding 18 mL sterile phosphate buffer to the plate and agitating the mold from the agar with a sterile inoculating loop. The spores were collected upon agitation. All suspended microbes were diluted with sterile phosphate buffer until a concentration in the range of 10^8 CFU/mL was achieved. The concentration was determined by plate count method. Each strain was identified by plating on the appropriate growth media, E. coli, S. aureus, and P. aeruginosa on TSA and C. albicans and A. brasiliensis on SDA, to ensure there was no contamination of the inoculum.
# (§6) Preservative Efficacy Testing. Each tube was inoculated with the standardized microbial suspensions, using a ratio of 1 mL to 10 grams of the product, ensuring that the inoculum after suspension would yield the target level of 6-log CFU/g cream. For every testing time point, the sample was enumerated by sampling 1 g from the original product containers, serial dilution, and streaking plates containing the appropriate growth media to test colonization in duplicate. The inoculated plates were incubated at 25° C. for C. albicans and A. niger and 37° C. for E. coli, S. aureus, and P. aeruginosa. The number of viable microorganisms per gram was calculated via plate count method. The samples were enumerated on day 0, 2, 3, 5, 7, 14, and 28.
# (§7) The plate counts obtained each day were averaged for each treatment. The results were shown graphically by the log count of each averaged value per treatment per day. For plates that had no growth, the lowest dilution plated was recorded.
# [2] = system: Candida albicans (ATCC #10231); settings: Study 1, cream with 0.5% or 1.0% caprylic acid, after 2 days
# Description: as §1, §2, §3, §4, §5, §6, §7
# [3] = system: Escherichia coli (ATCC #8739); settings: Study 1, cream with 0.5% or 1.0% caprylic acid, after 3 days
# Description: as §1, §2, §3, §4, §5, §6, §7
# [4] = system: Pseudomonas aeruginosa (ATCC #9027); settings: Study 1, cream with 0.5% or 1.0% caprylic acid, after 2 days
# Description: as §1, §2, §3, §4, §5, §6, §7
# [5] = system: Staphylococcus aureus (ATCC #6538); settings: Study 1, cream with 0.5% or 1.0% caprylic acid, after 2 days
# Description: as §1, §2, §3, §4, §5, §6, §7
structure (smiles),measurement,setting,value
"CCCCCCCC(=O)O [Caprylic Acid, octanoic acid]",Log reduction of A. brasiliensis,"[1]; Study 1, cream with caprylic acid, by the end of the study (28 days)",2 log
same,Ability to reduce the mold in cream,[1]; caprylic acid alone as control,unable to reduce the mold
same,Log reduction of C. albicans,[2],5 log
same,Log reduction of E. coli,[3],5 log
same,Log reduction of P. aeruginosa,[4],5 log
same,Log reduction of S. aureus,[5],5 log

# — patent US9578878B2, “Antimicrobial efficacy of an oregano oil and caprylic acid blend” (Kemin Industries, Inc., priority 2014, dated 2017)
